Test results from patent publication US7560473B2 (Institute of Pharmacology and Toxicology Academy of …, priority 2001, dated 2009).

Tests used:
[1] = tested on: rats anesthetized with pentobarbital sodium; test: Antagonism of glibenclamide on the cardiovascular effects in anesthetized rats; type: in vivo, Wistar rats; details: for +dp/dtmax / DBP / HR / LVSP / MBP / SB / Vpm / −dp/dtmax: iv mg/kg: pinacidil 1.0, nifedipine 1.0, compound 1 0.5, means ± SE
Description: The methods of biological activity experiment 1 were as follows: Male Wistar rats, weighing 280±30 g were purchased from the experimental animal center of Academy of Military Medical Sciences. Rats were anesthetized with pentobarbital sodium (45 mg/kg) by peritoneal injection. A PE50 polyethylene catheter was inserted into the left ventricle through right carotid artery for cardiac function measurement with a pressure energe exchanger, wherein the signal is put into a SMUP-PC biosignal processing system. Cardiac functional parameters such as HR, LVSP, +dp/dtmax, −dp/dtmax and Vpm were recorded. Another two PE50 polyethylene catheters were inserted into the right femoral artery and vein respectively for blood pressure measurement wherein the artery cathether was linked to a four-channel physiology recorder (RM-6000) through a MPU-0.5A Type pressure energe exchanger, which recorded SBP, DBP and MBP, while the vein catheter was used for compound administration. The methods were described by Liu Wei et al: Liu Wei, Wang Hai, Xiao Wen-Bin.
The methods of Biological activity experiment 3 were the same as those described in the biological activity experiment 1.

[2] = target: T1, ATP-sensitive potassium channels in vascular smooth muscles (Rattus norvegicus, UniProt Q63563); test: Association and dissociation kinetics of [^3H]glibenclamide binding in aortic rings; set-up: species or system Wistar rat; details: drug M: compound 1 10^−4, pinacidil 10^−4, ATP 10^−2, ADP 10^−3, UDP 5 × 10^−3, Ade 10^−3
T1 construct: The aorta was cut into about 3-5 mm arterial rings and the vascular endothelium was scraped off; from tissue; host or cells: endothelium-removed aortic rings of male Wistar rats
T1 sequence (Q63563 1-1545 isoform Q63563-2): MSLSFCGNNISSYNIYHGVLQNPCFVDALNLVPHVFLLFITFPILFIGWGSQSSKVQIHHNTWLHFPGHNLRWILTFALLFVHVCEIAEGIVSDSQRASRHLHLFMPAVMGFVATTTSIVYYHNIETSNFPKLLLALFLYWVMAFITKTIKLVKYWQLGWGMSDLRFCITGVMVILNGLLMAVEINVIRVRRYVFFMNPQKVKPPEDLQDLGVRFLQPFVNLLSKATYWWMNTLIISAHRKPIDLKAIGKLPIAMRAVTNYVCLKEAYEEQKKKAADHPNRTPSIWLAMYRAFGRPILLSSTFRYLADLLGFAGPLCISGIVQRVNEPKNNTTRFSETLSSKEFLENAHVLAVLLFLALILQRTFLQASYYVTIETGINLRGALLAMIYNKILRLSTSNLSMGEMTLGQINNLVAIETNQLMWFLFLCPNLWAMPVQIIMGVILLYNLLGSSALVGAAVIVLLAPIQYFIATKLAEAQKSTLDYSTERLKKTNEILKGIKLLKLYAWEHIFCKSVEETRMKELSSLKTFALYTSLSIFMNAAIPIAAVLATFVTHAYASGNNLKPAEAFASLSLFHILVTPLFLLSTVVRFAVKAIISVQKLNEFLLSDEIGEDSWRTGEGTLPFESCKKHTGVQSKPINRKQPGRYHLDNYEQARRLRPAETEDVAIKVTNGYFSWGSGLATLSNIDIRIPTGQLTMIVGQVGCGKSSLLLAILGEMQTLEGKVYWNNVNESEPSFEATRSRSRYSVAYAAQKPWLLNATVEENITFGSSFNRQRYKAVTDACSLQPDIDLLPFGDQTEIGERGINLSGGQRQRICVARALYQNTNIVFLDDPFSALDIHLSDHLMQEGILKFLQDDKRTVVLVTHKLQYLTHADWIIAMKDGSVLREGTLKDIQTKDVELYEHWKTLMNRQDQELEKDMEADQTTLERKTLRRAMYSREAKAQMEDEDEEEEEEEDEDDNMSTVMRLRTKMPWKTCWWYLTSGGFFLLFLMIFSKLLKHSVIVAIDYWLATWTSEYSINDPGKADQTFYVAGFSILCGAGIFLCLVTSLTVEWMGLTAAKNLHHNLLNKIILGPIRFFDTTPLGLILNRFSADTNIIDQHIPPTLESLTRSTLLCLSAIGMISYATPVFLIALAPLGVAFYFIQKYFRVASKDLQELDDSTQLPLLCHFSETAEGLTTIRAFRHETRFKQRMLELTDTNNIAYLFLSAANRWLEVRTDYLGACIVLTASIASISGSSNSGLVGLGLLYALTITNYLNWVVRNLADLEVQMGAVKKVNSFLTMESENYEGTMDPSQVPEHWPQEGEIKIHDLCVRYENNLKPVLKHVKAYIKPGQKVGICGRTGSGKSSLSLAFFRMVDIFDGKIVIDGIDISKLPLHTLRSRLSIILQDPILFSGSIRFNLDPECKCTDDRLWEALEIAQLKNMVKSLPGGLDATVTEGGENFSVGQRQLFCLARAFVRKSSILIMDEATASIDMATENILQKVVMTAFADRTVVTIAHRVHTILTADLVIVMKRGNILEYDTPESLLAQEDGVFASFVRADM
T1 sequence (Q63664 whole entry partner): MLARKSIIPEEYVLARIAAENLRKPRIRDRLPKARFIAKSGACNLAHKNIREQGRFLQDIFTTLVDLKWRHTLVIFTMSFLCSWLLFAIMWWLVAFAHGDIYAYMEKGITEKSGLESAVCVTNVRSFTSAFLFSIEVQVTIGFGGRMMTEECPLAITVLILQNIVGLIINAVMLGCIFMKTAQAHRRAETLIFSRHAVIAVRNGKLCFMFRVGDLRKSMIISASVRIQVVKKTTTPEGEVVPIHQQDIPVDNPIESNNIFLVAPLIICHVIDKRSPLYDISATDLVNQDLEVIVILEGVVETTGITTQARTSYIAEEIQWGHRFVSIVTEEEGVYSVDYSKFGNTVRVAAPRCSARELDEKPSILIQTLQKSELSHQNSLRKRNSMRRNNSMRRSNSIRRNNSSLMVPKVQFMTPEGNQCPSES
From the text: Biological activity experiment 4. Allosteric regulation of novel compounds on ATP-sensitive potassium channels in vascular smooth muscles.
To study the allosteric regulation of compound 1 on ATP-sensitive potassium channels in vascular smooth muscles, the radio-labled-ligand was used in the biological activity experiment 4.
1. The allosteric regulation of compound 1 on the binding sites for the selective KATP blocker glibenclamide in vascular smooth muscles was studied as follows: After decapitated, the male Wistar rat (340±20 g) was immediately incised open the thoracic cavity. The aorta was dissected and immersed in the 4° C. buffer containing 10 mM HEPES to wash off the blood, then carefully extirpated the fat, peripheral connective tissues and thrombus. The aorta was cut into about 3-5 mm arterial rings and the vascular endothelium was scraped off with wet tampon. The arterial rings were blotted, weighted and transferred into the tubes containing proper amount of ice colded physiological saline buffer. […] At 5,10,15,20,30,60,90 and 120 min after incubation, 9 mL ice colded Tris buffer (50 mM) was added to terminate the reaction. After washing off the free and bound [^3H]-glibenclamide, the aorta was blotted, transferred to a scintillator, added 50 uL 30% H2O2 and reacted for 2 h at 80° C. After cooling, 2.5 mL ethyl glycol and 5 mL 1% B-BPD xylene were added in sequence, kept stationary for 8 h and measured under a scintillometer for cpm value. The resulting data were fit into a regression line with In[BEQ/(BEQ-Bt)]vs.t and the parameters for association kinetics were obtained. In the disassociation kinetics experiments, the aorta treated as described above and [^3H]-glibenclamide were incubated for 60 min at 25° C., and then 30 uM glibenclamide was added. 0,5,15,30,60,90 and 120 min later, the cpm values for the complex of [^3H]-glibenclamide and KATP were measured. The resulting data were fit into a regression line with In(B/BEQ)]vs.t and the parameters for disassociation kinetics were obtained. 2. The allosteric regulation of compound 1 on the binding sites for the selective KATP activator P1075 in vascular smooth muscles was studied with the method as described above, but some conditions should be changed as follows: the incubation temperature was 37° C. instead of 25° C.;P1075 was used instead of glibenclamide; In the association kinetics experiments, the time points for sampling were 5,10,15,20,30,45,60 and 90 min, while in the disassociation kinetics experiments, that were 1,3,5,10,20,30,45 and 60 min. Biological activity experiment 5. The effects of compound 1 on the specific binding of high selective activator [^3H]P1075 with ATP-sensitive potassium channels in vascular smooth muscles.

[3] = tested on: spontaneously hypertensive rats; test: Acute antihypertensive effects in conscious spontaneously hypertensive rats; type: in vivo
From the text: Biological activity experiment 2. The acute antihypertensive effects of compound 1 in conscious spontaneously hypertensive rats.
The methods of biological activity experiment 2 were described by Long Chao-Liang et al: Long Chao-Liang, Wang Hai, Xiao Wen-Bin. Effects of pinacidil on, hypertensive vascular remodeling. Chin J Pharmacol Toxicol 1997; 11(1):42-46.

[4] = target: T1, ATP-sensitive potassium channels in vascular smooth muscles; test: Inhibition of specific binding of [^3H]P1075 in endothelium-removed rat aorta; set-up: species or system Wistar rat
[5] = A: after administration (30 min after pinacidil, 10 min nifedipine, 15 min compound 1), glibenclamide 20 iv pretreatment
[6] = B: before administration, glibenclamide 20 iv pretreatment ten minutes

CC(C)NC(C)(C)C(C)C [compound 1, N-(1-methylethyl)-2,3-dimethyl-2-butylamine]
+dp/dtmax [1, 5]: 672 ± 36 kPa/a
DBP [1, 5]: 77 ± 9 mmHg
HR [1, 5]: 357 ± 18 bpm
LVSP [1, 5]: 133 ± 6 mmHg
MBP [1, 5]: 86 ± 9 mmHg
SB [1, 5]: 105 ± 10 mmHg
Vpm [1, 5]: 2.7 ± 03 /a
−dp/dtmax [1, 5]: 507 ± 39 kPa/a
+dp/dtmax [1, 6]: 978 ± 54 kPa/a
DBP [1, 6]: 98 ± 7 mmHg
HR [1, 6]: 394 ± 13 bpm
LVSP [1, 6]: 180 ± 10 mmHg
MBP [1, 6]: 110 ± 7 mmHg
SB [1, 6]: 134 ± 8 mmHg
Vpm [1, 6]: 3.3 ± 0.2 /a
−dp/dtmax [1, 6]: 819 ± 56 kPa/a
antagonism of the cardiovascular effects by glibenclamide (in words) ([1]; glibenclamide 20 mg/kg iv pretreatment): could be antagnized by glibenclamide
Dissociation kinetics k2 of [^3H]glibenclamide binding ([2]; 25° C., control 0.72 ± 0.11): 1.02 ± 0.14 ×10^2 nM^−1 · min^−1
Dissociation kinetics Kd of [^3H]glibenclamide binding in presence of the drug ([2]; Kd of the radioligand, not of the drug, control 0.55 ± 0.14): 1.64 ± 0.69 nM
Association kinetics k1 of [^3H]glibenclamide binding ([2]; [^3H]-glibenclamide 3 nM, 25° C., control 1.31 ± 0.14): 0.62 ± 0.25 ×10^−2nM^−1 · min^−1
Association kinetics kobs of [^3H]glibenclamide binding ([2]; [^3H]-glibenclamide 3 nM, 25° C., control 4.65 ± 0.37, means ± SD, n = 4~10): 2.90 ± 0.74 ×10^−2nM^−1 · min^−1
Association kinetics kA of [^3H]glibenclamide binding ([2]; [^3H]-glibenclamide 3 nM, 25° C., control 181.90 ± 46.90): 61.04 ± 25.89 ×10^−2nM^−1 · min^−1
SBP at 1 h after administration ([3]; 1 h, po mg/kg: compound 1 3, pinacidil 3, nifedipine 10, bisoprolol 60, captopril 40, means ± SD, 9-13 rats): 227 ± 12 mmHg
heart rates at 1 h ([3]; 1 h, po mg/kg: compound 1 3, pinacidil 3, nifedipine 10, bisoprolol 60, captopril 40, means ± SD, 9-13 rats, in bpm (unit assumed)): 414 ± 27
SBP at 3 h after administration ([3]; 3 h, po mg/kg: compound 1 3, pinacidil 3, nifedipine 10, bisoprolol 60, captopril 40, means ± SD, 9-13 rats): 218 ± 7 mmHg
heart rates at 3 h ([3]; 3 h, po mg/kg: compound 1 3, pinacidil 3, nifedipine 10, bisoprolol 60, captopril 40, means ± SD, 9-13 rats, in bpm (unit assumed)): 412 ± 27
SBP at 5 h after administration ([3]; 5 h, po mg/kg: compound 1 3, pinacidil 3, nifedipine 10, bisoprolol 60, captopril 40, means ± SD, 9-13 rats): 215 ± 15 mmHg
heart rates at 5 h ([3]; 5 h, po mg/kg: compound 1 3, pinacidil 3, nifedipine 10, bisoprolol 60, captopril 40, means ± SD, 9-13 rats, in bpm (unit assumed)): 408 ± 25
SBP at 9 h after administration ([3]; 9 h, po mg/kg: compound 1 3, pinacidil 3, nifedipine 10, bisoprolol 60, captopril 40, means ± SD, 9-13 rats): 229 ± 8 mmHg
heart rates at 9 h ([3]; 9 h, po mg/kg: compound 1 3, pinacidil 3, nifedipine 10, bisoprolol 60, captopril 40, means ± SD, 9-13 rats, in bpm (unit assumed)): 407 ± 21
SBP at 12 h after administration ([3]; 12 h, po mg/kg: compound 1 3, pinacidil 3, nifedipine 10, bisoprolol 60, captopril 40, means ± SD, 9-13 rats): 243 ± 7 mmHg
heart rates at 12 h ([3]; 12 h, po mg/kg: compound 1 3, pinacidil 3, nifedipine 10, bisoprolol 60, captopril 40, means ± SD, 9-13 rats, in bpm (unit assumed)): 413 ± 15
SBP at 24 h after administration ([3]; 24 h, po mg/kg: compound 1 3, pinacidil 3, nifedipine 10, bisoprolol 60, captopril 40, means ± SD, 9-13 rats): 244 ± 9 mmHg
heart rates at 24 h ([3]; 24 h, po mg/kg: compound 1 3, pinacidil 3, nifedipine 10, bisoprolol 60, captopril 40, means ± SD, 9-13 rats, in bpm (unit assumed)): 417 ± 12
SBP base value ([3]; base value before administration, po mg/kg: compound 1 3, pinacidil 3, nifedipine 10, bisoprolol 60, captopril 40, means ± SD, 9-13 rats): 246 ± 11 mmHg
heart rates base value ([3]; base value before administration, po mg/kg: compound 1 3, pinacidil 3, nifedipine 10, bisoprolol 60, captopril 40, means ± SD, 9-13 rats, in bpm (unit assumed)): 419 ± 20
duration of antihypertensive action ([3]; oral administration, spontaneously hypertensive rats): 9 h
IC50 ([4]; [^3H] P1075 5 nmol L^−1, 90 minutes at 37° C., endothelium-removed rat aorta): 355 ± 53.7 nM
Ki ([4]; [^3H] P1075 5 nmol L^−1, 90 minutes at 37° C., endothelium-removed rat aorta, read-out: pKi for inhibition of specific binding of [^3H]P1075 (converted)): 355 nM
competitive inhibition of [^3H] P1075 binding, times weaker than that of P1075 ([4]; relative to P1075): 39 times
competitive inhibition of [^3H] P1075 binding, times stronger than that of glibenclamide ([4]; relative to glibenclamide): 166 times
competitive inhibition of [^3H] P1075 binding, times weaker than that of pinacidil ([4]; relative to pinacidil): 1.8 times
